Test results taken from US10071158B2, “Combination of the application of antibodies for immunostimulation together with glucocorticoids” (Lindis Biotech GmbH, priority 2005, dated 2018).
Entries after “also recorded” stand apart in the source; their conditions may differ.

Assays:
[1] = test system: HCT8 tumour cells; test: Cytotoxicity assay with fluorescence-marked HCT8 tumour cells, PBMC of healthy test subjects and tumour patients (FIG. 10); type: cell-based, human
Protocol: FIGS. 10A to 10C represent the mean values of the measurements carried out in respect of three healthy test subjects, whereas FIG. 10D represents the mean values of the measurements carried out in respect of six patients with gastrointestinal carcinoma. In the experiments a stimulation was effected with trifunctional bispecific antibodies with the specificity anti-EpCAM x anti-CD3 at various concentrations amounting to 10 ng/ml, 100 ng/ml and 1000 ng/ml. The respective concentration of the antibody that has been used is specified in FIGS. 10A to 10D. The concentration of the PBMC amounted to 10^6 cells/ml, that of the HCT8 cells amounted to 5×10^4 cells/ml. […] On the y-axis the percentage cytotoxicity has been plotted; on the x-axis the respective experimental assay of the PBMC has been plotted, with unstimulated PBMC serving by way of control (PBMC).

[2] = test system: mononuclear cells of the peripheral blood (PBMC); test: Release of IL-6 by PBMC after stimulation with anti-EpCAM x anti-CD3 antibody without/with HCT8 tumour cells (ELISA); type: cell-based, human; details: antibody-stimulated PBMC with HCT8; dexamethasone 0.01 μg/ml to 10 μg/ml (FIG. 1B)
Protocol: FIG. 1A represents the release of IL-6, the IL-6 concentration in pg/ml being plotted on the y-axis. On the x-axis the respective stimulation of the PBMC has been plotted, with unstimulated PBMC serving by way of control (bar “PBMC”). In this connection, E signifies in each instance the stimulation with 100 μg/ml trifunctional bispecific antibody with the specificity anti-EpCAM x anti-CD3. […] In the experiment according to FIG. 1A the release of IL-6 from PBMC is investigated after stimulation without contact with EpCAM-positive tumour cells (=target cells). The stimulation without EpCAM-positive tumour cells corresponds to the non-specific release of cytokine, which is independent of the antigen binding. Release is accordingly effected systemically by the totality of the PBMC.
This procedure of stimulation with EpCAM-positive tumour cells corresponds to the situation of the release of IL-6 by the PBMC at the site of antigen binding. […] In the clinical use of the immunostimulating antibody together with the glucocorticoid the high quantity of IL-6 is released only by a few PBMC that are directly involved in the specific action. […]
(§1) FIGS. 14 to 16 show graphic representations of the results of the release of various cytokines in tumour patients by PBMC. […] The release of the same cytokines was measured likewise. […]

[3] = after i.v. injection; cited from earlier work
[4] = test system: mononuclear cells of the peripheral blood (PBMC); test: Release of IFN-γ by PBMC after stimulation with anti-EpCAM x anti-CD3 antibody without/with HCT8 tumour cells (ELISA); type: cell-based, human; details: dexamethasone 0.1 μg/ml
Protocol: Mononuclear cells were extracted from the peripheral blood of a healthy volunteer by means of centrifugation over Ficoll (density 1.068 g/cm^3). To this end, venous heparinised blood was stratified over Ficoll and centrifuged at 2000 rpm for 20 min. The cell layer located above the Ficoll was pipetted off after centrifugation and was washed with PBS.
For the purpose of stimulation, the PBMC were used at a concentration of 1×10^6/ml. The stimulation of the PBMC was effected with an intact trifunctional bispecific antibody either of the specificity anti-EpCAM x anti-CD3 at a concentration of 100 μg/ml or of the specificity anti-HER2/neu x anti-CD3 at a concentration of 1 mg/ml. The stimulation was carried out for 24 h by incubation at 37 ° C. The stimulation was effected in each instance without tumour cells or in the presence of 5×10^4 HCT8 tumour cells (relative to ATCC; EpCAM-positive) per ml.
After the stimulation the determination of the concentrations of the cytokines IL-6, IL-10, TNF-α and IFN-γ was undertaken in the supernatant on plates with 24 recesses in each instance by means of an ELISA. In each instance duplicate measurements were carried out. The ELISAs were undertaken by means of standardised kits produced by R&D Systems, in accordance with the manufacturer's instructions.

[5] = test system: HCT8 tumour cells; test: Two-hour cytotoxicity assay with fluorescence-marked (BCECF-AM) HCT8 tumour cells, stimulated PBMC (FIG. 5); type: cell-based, human; parameters: effect on specific percentage cytotoxicity of stimulated PBMC: dose or concentration left out as unconfirmed
Protocol: FIG. 5A-5D represents in diagrams the results of the measurement of the specific percentage cytotoxicity, which was determined in a two-hour cytotoxicity assay with fluorescence-marked HCT8 tumour cells. In FIGS. 5A to 5D the specific percentage cytotoxicity against HCT8 has been plotted as a function of the ratio of effector cells to target cells (E/T), the cytotoxicity test having been carried out in each instance in the case of a ratio of the effector cells to the target cells of 40:1, 20:1, 10:1, 5:1 and 2.5:1.
With the aid of a cytotoxicity test the influence of glucocorticoid on the T-cell toxicity was investigated. The extraction of the PBMC and the stimulation thereof were carried out in accordance with the above Example 1.
The measurement of cytotoxicity was undertaken with the aid of a fluorescence test using the dyestuff BCECF-AM. The measurement was undertaken by means of 2 h release technology corresponding to the procedure in Kolber et al. (1988) J. Immunol. Meth. 108: 255-264.

[6] = test system: mononuclear cells of the peripheral blood (PBMC); test: Release of TNF-α by PBMC after stimulation with anti-EpCAM x anti-CD3 antibody without/with HCT8 tumour cells (ELISA); type: cell-based, human; details: without HCT8; dexamethasone 0.1 μg/ml (FIG. 2C)
Text: FIG. 2A-2C represents in diagrams the results of the release of tumour necrosis factor α (TNF-α) after stimulation with trifunctional bispecific antibody of the specificity anti-EpCAM x anti-CD3 without and in the presence of EpCAM-positive tumour cells.
This stimulation without target cells corresponds, in turn, as already stated with respect to FIG. 1A, to the systemic, non-specific release of cytokine, which arises independently of the antibody/antigen interaction. This systemic release of TNF-α is effected by the totality of the PBMC population. […]
FIG. 2B represents, in a diagram similar to FIG. 1B, the release of TNF-α from PBMC after antibody stimulation with contact with EpCAM-positive tumour cells, the TNF-α concentration in pg/ml being plotted, here too, on the y-axis. […] In the case of stimulation with contact with EpCAM-positive tumour cells, in comparison with the stimulation without contact with target cells, in connection with the release of TNF-α absolutely higher values are also measured, which, however, as already stated above with respect to the release of IL-6 in connection with FIG. 1B, has its origin in the specific immunological action at the site of the antibody/antigen interaction. […]
as §1

C[C@@H]1C[C@H]2[C@@H]3CCC4=CC(=O)C=C[C@]4(C)[C@@]3(F)[C@@H](O)C[C@]2(C)[C@@]1(O)C(=O)CO [dexamethasone]
inhibition of the specific percentage cytotoxicity ([1]; antibody 10 ng/ml, no contact with HCT8, dexamethasone, healthy test subjects): about 5 percentage points
inhibition of the specific percentage cytotoxicity ([1]; antibody 10 ng/ml, with HCT8, dexamethasone up to 1.0, healthy test subjects (FIG. 10A)): approximately 15 percentage points
specific percentage cytotoxicity ([1]; antibody 10 ng/ml, with HCT8, with dexamethasone, healthy test subjects): ~41%
inhibition of the cytotoxicity ([1]; antibody 100 ng/ml, dexamethasone, patients with gastrointestinal tumours (FIG. 10D)): approximately 27 percentage points
inhibition of the specific percentage cytotoxicity ([1]; antibody 100 ng/ml, with HCT8, dexamethasone up to 1.0, healthy test subjects (FIG. 10B)): about 30 percentage points
specific percentage cytotoxicity ([1]; antibody 100 ng/ml, with HCT8, with dexamethasone, healthy test subjects): ~50%
cytotoxicity ([1]; antibody 100 ng/ml, with dexamethasone, patients with gastrointestinal tumours): ~51%
inhibition of the cytotoxicity ([1]; antibody 100 ng/ml, without contact with HCT8, dexamethasone, healthy test subjects): approximately 10 percentage points
inhibition of the specific percentage cytotoxicity ([1]; antibody 1000 ng/ml, with HCT8, dexamethasone up to 1.0, healthy test subjects (FIG. 10C)): about 20 percentage points
specific percentage cytotoxicity ([1]; antibody 1000 ng/ml, with HCT8, with dexamethasone, healthy test subjects): ~67%
inhibition of the cytotoxicity ([1]; antibody 1000 ng/ml, without contact with HCT8, dexamethasone, healthy test subjects): about 2 percentage points
release of IL-6 in the supernatant [2]: above 5000 pg/ml
maximum plasma concentrations attained [3]: within a few minutes
release of IFN-γ [4]: under 3000 pg/ml
effect on the cytotoxicity of stimulated PBMC ([5]; dexamethasone 0.01 μg/ml): no effect
percentage cytotoxicity ([5]; dexamethasone 0.1 μg/ml to 10 μg/ml, stimulation in the presence of HCT8, E/T 40:1): maintained constant at a high level
inhibition of the specific percentage cytotoxicity ([5]; dexamethasone 0.1 μg/ml, with or without HCT8 during stimulation (FIG. 5B)): about 50 percentage points
inhibition of the percentage specific cytotoxicity ([5]; dexamethasone 1 μg/ml, E/T 20:1, stimulation in the absence of HCT8): distinctly greater inhibition
inhibition of the specific percentage cytotoxicity compared with 0.1 μg/ml ([5]; dexamethasone 1 μg/ml, stimulation in the presence of HCT8 (FIG. 5C)): roughly the same level
cytotoxicity values in relation to lower dexamethasone concentrations ([5]; dexamethasone 10 μg/ml, stimulation in the absence of HCT8): declined further
percentage cytotoxicity ([5]; dexamethasone 10 μg/ml, stimulation in the presence of HCT8, E/T 20:1 (FIG. 5D)): 30%
specific percentage cytotoxicity ([5]; dexamethasone 10 μg/ml, stimulation in the presence of HCT8, E/T twice as large (40:1)): about 60%
effect on specific percentage cytotoxicity of stimulated PBMC ([5]; dexamethasone (FIG. 5A)): no effect; also recorded: no inhibition
effect on cytotoxicity ([5]; dexamethasone starting from 0.1 μg/ml, independent of HCT8 during stimulation): significant reducing; also recorded: distinct reducing
percentage cytotoxicity as a function of dexamethasone concentration ([5]; stimulation of PBMC without HCT8): declines further
non-specific secretion of TNF-α, % of value with antibody without dexamethasone [6]: ~20%
